Data: patent US20250109127A1, “METHODS OF USE OF PHENOXYPROPYLAMINE COMPOUNDS TO TREAT DEPRESSION” (Minerva Neurosciences, Inc., priority 2013, published 2025)
Where “and” joins values, the source holds several entries; their conditions need not be identical. Equal values may be shown once. Where a name gives a salt, the structure may show the parent alone.

Test system: 5-HT release in the rat prefrontal cortex
Experiment: Microdialysis: 5-HT release in prefrontal cortex after I.P. administration
Type: in vivo
Conditions: for 5-HT release, individual animals / 5-HT release, MEAN: 0.3 mg/kg I.P.; for 5-HT release, individual animals: one column per animal R#11,12,18,23,29,30,17,24, hydrochloride; for 5-HT release, MEAN / 5-HT release (% of basal levels) measured in dialysates, MEAN: n = 8; for serotonin levels, increase (not statistically significant): SON-117 0.1 mg/kg IP; for 5-HT release (% of basal levels) measured in dialysates, MEAN: SON-117 3 mg/kg IP
Protocol: The aim of the study was to evaluate, using microdialysis, the effects of an intraperitoneal (I.P.) administration in rats of three different doses of SON-117 on dopamine and its metabolites, serotonin and its metabolite (5-HIAA), and norepinephrine levels in prefrontal cortex.
Thirty-two adult male Wistar rats were used for the whole study (4 groups of eight animals planned for the study, Table 1).
Surgery was performed on rats weighing about 300 g at the beginning of the experiments. Rats were anaesthetized with Ketamine (50 mg/kg) & Xylazine (15 mg/kg) by intramuscular administration. The animals were placed in a stereotaxic apparatus in the flat-skull position at a constant setting of −3.3 mm between ear bars and the incisor bar. The animals were treated with a local anesthesic (xylocaine 1%, Astra Zeneca) and an analgesic (Temgesic, from Schering Plough, 0.05 mg/kg, s.c.). A rostrocaudal midline incision was made with a lancet to expose the dorsal skull surface. The “stereotaxic zero” was defined by the Bregma in accordance with Paxinos and Watson's atlas (1986). A hole was drilled in the skull with a drill and the meninges were pierced with a sterile needle to implant a CMA12 guide cannula which later received the dialysis probe.
Coordinates used for implanting guide cannula in prefrontal cortex from Bregma were anteroposterior 3.7 mm, mediolateral 0.8 mm, and dorsoventral −2 mm (top of the probe was at −5 mm). The guide cannula was fixed to the skull with two stainless steel screws (1.88 mm outside diameter) anchored. An application of dental cement was added. A plastic collar allowed each animal to be tethered to a Swivel assembly of the CMA 120 awake animal system. Following surgery, rats were kept in individual cages and allowed to recover for a minimum of 3-5 days before the experimentation. The rats were handled and put in plastic bowl for 10 min at least every day to habituate the animals to their new environment for the dialysis. An I.P. administration with saline was also performed every day.
Dialysis probes (CMA12/3 mm, membrane, 20 kD cut-off, Carnegie Medicine, Stockholm, Sweden), were carefully washed before inserting into the guide cannula. The wash was performed with the artificial cerebrospinal fluid (aCSF) medium (NaCl 147 mM, KCl 2.7 mM, CaCl2 1.2 mM, MgCl2 0.85 mM) at room temperature. The dialysis system was then equilibrated at 20° C. at a perfusion rate of 1 μl/min with a Carnegie pump (CMA100). All catheters (FEP tubing, internal volume of 1.2 μl/10 cm, and tubing adaptors) used for microdialysis were treated in the same conditions.
The probes duly prepared were inserted into the guide cannula and the CMA120 Swivel assembly secured to the animal using a plastic collar. Flow through the dialysis probe with aCSF was maintained at a rate of 1 μl/min during the whole experimentation. The first four fractions (corresponding to 2 hours) were discarded to avoid the effects of parenchymal disturbance and to ensure that an approximate steady-state level was reached. Fractions were then collected over a period of 8.5 h during which time the animals remained quiet. The dialysates were automatically collected with an autosampler (microfraction collector CMA 140, Carnegie Medicin) and stored at −80° C. until analysis. […] Perfusion was then maintained for 7 hours with aCSF. The dialysates (30 μl) were collected into 300 μl vials, transferred into dry ice and then kept frozen (−80° C.) until analysis. Frozen samples were shipped to a partner for analysis. At the end of the microdialysis study, a PBS with colored ink was perfused through the probe in order to visualize the dialyzed area.
Catecholamine assay: Concentrations of dopamine, DOPAC, HVA, 5-HIAA, 5-HT, and norepinephrin were determined for each sample by HPLC coupled with electrochemical detection. […]

Cc1nnc(-c2cc3c(OC[C@@H](O)CN4CCC(c5ccc(Cl)c(Cl)c5)CC4)cccc3o2)o1 [SON-117, (S)-1-(4-(3,4-dichlorophenyl)piperidino)-3-(2-(5-methyl-1,3,4-oxadiazol-2-yl)benzo(b)furan-4-yloxy)-2-propanol hydrochloride]
5-HT release, individual animals (T3 h 30-T4 h): 200.54 % of respective basal and 84.61 % of respective basal and 62.15 % of respective basal and 60.73 % of respective basal and 115.12 % of respective basal and 46.42 % of respective basal and 361.81 % of respective basal
5-HT release, MEAN (T3 h-T3 h 30): 112.03 % of respective basal
5-HT release, individual animals (T3 h-T3 h 30): 118.62 % of respective basal and 100.39 % of respective basal and 94.04 % of respective basal and 122.16 % of respective basal and 126.07 % of respective basal and 27.45 % of respective basal and 195.48 % of respective basal
5-HT release, MEAN (T4 h 30-T5 h): 105.19 % of respective basal
5-HT release, individual animals (T4 h 30-T5 h): 144.93 % of respective basal and 86.55 % of respective basal and 70.67 % of respective basal and 69.54 % of respective basal and 82.71 % of respective basal and 313.44 % of respective basal and 18.96 % of respective basal and 54.73 % of respective basal
5-HT release, MEAN (T4 h-T4 h 30): 80.14 % of respective basal
5-HT release, individual animals (T4 h-T4 h 30): 87.68 % of respective basal and 67.29 % of respective basal and 102.65 % of respective basal and 67.53 % of respective basal and 83.72 % of respective basal and 130.39 % of respective basal and 23.64 % of respective basal and 78.23 % of respective basal
5-HT release, MEAN (T5 h 30-T6 h): 106.06 % of respective basal
5-HT release, individual animals (T5 h 30-T6 h): 149.11 % of respective basal and 44.15 % of respective basal and 83.73 % of respective basal and 57.89 % of respective basal and 95.31 % of respective basal and 328.43 % of respective basal and 13.82 % of respective basal and 76.03 % of respective basal
5-HT release, MEAN (T5 h-T5 h 30): 100.56 % of respective basal
5-HT release, individual animals (T5 h-T5 h 30): 81.27 % of respective basal and 37.01 % of respective basal and 187.99 % of respective basal and 64.78 % of respective basal and 81.96 % of respective basal and 177.83 % of respective basal and 7.58 % of respective basal and 166.02 % of respective basal
5-HT release, MEAN (T6 h 30-T7 h): 103.94 % of respective basal
5-HT release, individual animals (T6 h 30-T7 h): 181.36 % of respective basal and 59.67 % of respective basal and 70.80 % of respective basal and 52.79 % of respective basal and 109.41 % of respective basal and 187.49 % of respective basal
5-HT release, MEAN (T6 h-T6 h 30): 95.56 % of respective basal
5-HT release, individual animals (T6 h-T6 h 30): 73.74 % of respective basal and 57.84 % of respective basal and 81.54 % of respective basal and 59.72 % of respective basal and 94.43 % of respective basal and 108.00 % of respective basal and 20.86 % of respective basal and 268.32 % of respective basal
5-HT release, MEAN (T-30 min-T0 (before administration)): 94.43 % of respective basal
5-HT release, MEAN (T-1 h 30-T-1 h (before administration)): 100.12 % of respective basal
5-HT release, MEAN (T-1 h-T-30 min (before administration)): 104.14 % of respective basal
serotonin levels, increase (not statistically significant) (at 2.5 h): 368%
serotonin levels, increase (not statistically significant) (from 4.5 h to 7 h): 350%
5-HT release, maximum increase observed (SON-117 0.1 mg/kg, at 2.5 h): 369%
levels of 5-HT compared to the citalopram treated group (significant) (SON-117 0.1 mg/kg, at 2.5 h, 4.5 and 5.5 h): higher
5-HT dialysate levels vs mean pre-administration value (SON-117 0.3 mg/kg IP): no statistically significant differences
levels of 5-HT compared to the citalopram treated group (significant) (SON-117 0.3 mg/kg, at 1 h): slightly lower
5-HT release (% of basal levels) measured in dialysates, MEAN (T0-T30 min): 100.79 % of basal levels
5-HT release (% of basal levels) measured in dialysates, MEAN (T30-T1 h): 122.25 % of basal levels
